Measured values published in the Deep4Chem optical property database.
Values joined by “and” are separate entries in the source; they are usually repeats but may differ in a detail not shown here. Identical values can stand only once. One block for each compound: values may come before it.

Test: photoluminescence quantum yield (fraction); solvent given as SMILES

SMILES: N#Cc1c(C#N)c2ccccc2c2ccccc12
photoluminescence quantum yield (in ClC(Cl)Cl): 0.17

SMILES: O=Cc1ccc(C#CC(C#Cc2ccc(C=O)s2)=Cc2ccc(C=C(C#Cc3ccc(C=O)s3)C#Cc3ccc(C=O)s3)cc2)s1
photoluminescence quantum yield (in ClC(Cl)Cl): 0.08

SMILES: C[N+]1=C(/C=C/C=C2/N(CCC[N+](C)(C)C)c3ccccc3C2(C)C)C(C)(C)c2ccccc21
photoluminescence quantum yield (in CS(C)=O): 0.08

SMILES: CCc1cccc(CC)c1-c1c2ccccc2c(-c2c(CC)cccc2CC)c2cc3ccccc3cc12
photoluminescence quantum yield (in ClCCl): 0.56

SMILES: CCCCN1c2ccccc2Sc2cc(/C=C/c3nc4nc5ccccc5nc4s3)ccc21
photoluminescence quantum yield (in C1CCCCC1): 0.27
photoluminescence quantum yield (in C1CCOC1): 0.01
photoluminescence quantum yield (in C1COCCO1): 0.07
photoluminescence quantum yield (in CC#N): 0
photoluminescence quantum yield (in CC(C)=O): 0.001
photoluminescence quantum yield (in CC(C)O): 0
photoluminescence quantum yield (in CCOC(C)=O): 0.02
photoluminescence quantum yield (in CCOCC): 0.05
photoluminescence quantum yield (in CO): 0
photoluminescence quantum yield (in CS(C)=O): 0
photoluminescence quantum yield (in Cc1ccccc1): 0.08
photoluminescence quantum yield (in ClCCl): 0.008

SMILES: O=C(Cc1ccccc1)OCc1ccc2c3cccc4cccc(c5cccc1c52)c43
photoluminescence quantum yield (in CCO): 0.92

SMILES: CCN(CC)c1ccc2c(-c3ccc(S(=O)(=O)[O-])cc3S(=O)(=O)[O-])c3ccc(=[N+](CC)CC)cc-3oc2c1
photoluminescence quantum yield (in CC#N): 0.52
photoluminescence quantum yield (in CCO): 0.68
photoluminescence quantum yield (in CN(C)C=O): 0.51
photoluminescence quantum yield (in O): 0.3

SMILES: c1cc2c([nH]c3c4[nH]c5sccc5c4c4nsnc4c23)s1
photoluminescence quantum yield (in C1CCOC1): 0.38
photoluminescence quantum yield (in CCOC(C)=O): 0.34
photoluminescence quantum yield (in CN(C)C=O): 0.33
photoluminescence quantum yield (in Cc1ccccc1): 0.42
photoluminescence quantum yield (in ClCCl): 0.27

SMILES: CN(C)c1ccc(-c2c(/C=C3/C=Cc4ccccc4N3C)c(=O)c2=O)cc1
photoluminescence quantum yield (in C1CCCCC1): 0.0301
photoluminescence quantum yield (in Cc1ccccc1): 0.0256
photoluminescence quantum yield (in ClCCl): 0.001

SMILES: c1ccc(CO[Si]23n4c5c6ccccc6c4/N=C4N=C(/N=c6/c7ccccc7c(n62)=c2c6ccccc6c(n23)=N5)c2ccccc2\4)cc1 (stereo not drawn)
photoluminescence quantum yield (in CN(C)C=O): 0.24

SMILES: CCC1=C(C)C2=Cc3cc(I)c(I)n3[B-](F)(F)[N+]2=C1C
photoluminescence quantum yield (in C1CCCCC1): 0.26
photoluminescence quantum yield (in CC(C)=O): 0.16
photoluminescence quantum yield (in CCO): 0.2
photoluminescence quantum yield (in CCOC(C)=O): 0.19
photoluminescence quantum yield (in CO): 0.17
photoluminescence quantum yield (in OCC(F)(F)F): 0.12

SMILES: Oc1ccc(-c2nc(-c3ccccc3)c(-c3ccccc3)[nH]2)cc1
photoluminescence quantum yield (in CO): 0.18

SMILES: CCCCC(CC)CN1C(=O)C2=C(c3ccc(-c4ccc(C5=C6C(C)=CC(C)=[N+]6[B-](F)(F)n6c(C)cc(C)c65)cc4)s3)N(CC(CC)CCCC)C(=O)C2=C1c1ccc(-c2ccc(C3=C4C(C)=CC(C)=[N+]4[B-](F)(F)n4c(C)cc(C)c43)cc2)s1 (stereo not drawn)
photoluminescence quantum yield (in Cc1ccccc1): 0.45

SMILES: CCN(CC)c1ccc2cc(/C=C(\C#N)c3nc4ccccc4s3)c(=O)oc2c1
photoluminescence quantum yield (in C1COCCO1): 0.0043
photoluminescence quantum yield (in CC#N): 0.0027
photoluminescence quantum yield (in CCO): 0.0048
photoluminescence quantum yield (in CCOC(C)=O): 0.0035
photoluminescence quantum yield (in CN(C)C=O): 0.0122
photoluminescence quantum yield (in CO): 0.0061
photoluminescence quantum yield (in CS(C)=O): 0.0104
photoluminescence quantum yield (in Cc1ccccc1): 0.0036
photoluminescence quantum yield (in ClCCl): 0.0033

SMILES: O=C1c2ccc(-c3ccc(N(c4ccccc4)c4ccccc4)cc3)cc2S(=O)(=O)c2cccc(-c3ccc(N(c4ccccc4)c4ccccc4)cc3)c21
photoluminescence quantum yield (in c1ccc2c(c1)c1ccccc1n2-c1ccc(-c2ccc(-n3c4ccccc4c4ccccc43)cc2)cc1): 0.04

SMILES: c1ccc(-c2cc3cc4cccc5c(-c6ccccc6)cc6cc7cccc2c7c3c6c45)cc1
photoluminescence quantum yield (in ClCCl): 0.33

SMILES: CCC1=C(C)C2=C(c3c(C)cc(C)nc3-c3cccs3)c3c(C)c(CC)c(C)n3[B-](F)(F)[N+]2=C1C
photoluminescence quantum yield (in C1CCCCC1): 0.53
photoluminescence quantum yield (in C1CCOC1): 0.46
photoluminescence quantum yield (in C1COCCO1): 0.49
photoluminescence quantum yield (in CC#N): 0.45
photoluminescence quantum yield (in CCCCCC): 0.52
photoluminescence quantum yield (in CCO): 0.47
photoluminescence quantum yield (in CCOC(C)=O): 0.47
photoluminescence quantum yield (in CCOCC): 0.5
photoluminescence quantum yield (in CN(C)C=O): 0.44
photoluminescence quantum yield (in CS(C)=O): 0.44
photoluminescence quantum yield (in Cc1ccccc1): 0.49
photoluminescence quantum yield (in ClC(Cl)(Cl)Cl): 0.5
photoluminescence quantum yield (in ClC(Cl)Cl): 0.49

SMILES: CC1(C)c2cccc(-c3nc(-c4ccccc4)nc(-c4ccccc4)n3)c2Oc2c(-n3c4ccccc4c4ccccc43)cccc21
photoluminescence quantum yield (in Cc1ccccc1): 0.059

SMILES: c1ccc(N(c2ccccc2)c2ccc3ccc4c(N(c5ccccc5)c5ccccc5)ccc5ccc2c3c54)cc1
photoluminescence quantum yield (in ClCCl): 0.78

SMILES: CCOC(=O)COc1ccc(/C=C/C2=C3c4ccccc4C(c4ccc[nH]4)=[N+]3[B-](F)(F)n3ccc(C)c32)cc1
photoluminescence quantum yield (in C1CCOC1): 0.003
photoluminescence quantum yield (in CC#N): 0.003
photoluminescence quantum yield (in CCCCCC): 0.009
photoluminescence quantum yield (in CO): 0.005
photoluminescence quantum yield (in Cc1ccccc1): 0.004
photoluminescence quantum yield (in ClCCl): 0.003

SMILES: CCCCCCCCCCCCOc1cc2cc(N(C)C)ccc2cc1C=O
photoluminescence quantum yield (in ClCCl): 0.93

SMILES: CCCCCCOc1cc(C=C2c3ccccc3-c3ccccc32)c(OCCCCCC)cc1C=C1c2ccccc2C=Cc2ccccc21
photoluminescence quantum yield (in C1CCOC1): 0.0013

SMILES: [C-]#[N+]c1ccc(-c2ccc(N)cc2)cc1
photoluminescence quantum yield (in C1CCCCC1): 0.66
photoluminescence quantum yield (in C1CCOC1): 0.78
photoluminescence quantum yield (in C1COCCO1): 0.79
photoluminescence quantum yield (in CC#N): 0.65
photoluminescence quantum yield (in CC(C)=O): 0.52
photoluminescence quantum yield (in CCCCCC): 0.76
photoluminescence quantum yield (in CCOC(C)=O): 0.67
photoluminescence quantum yield (in CN(C)C=O): 0.78
photoluminescence quantum yield (in CO): 0.1
photoluminescence quantum yield (in CS(C)=O): 0.77
photoluminescence quantum yield (in Cc1ccccc1): 0.68
photoluminescence quantum yield (in ClC(Cl)Cl): 0.2
photoluminescence quantum yield (in ClCCl): 0.75
photoluminescence quantum yield (in O): 0.0088
photoluminescence quantum yield (in c1ccncc1): 0.06

SMILES: CCCCCCCCn1c2cc(/C=C/c3ccc(N(c4ccccc4)c4ccccc4)cc3)ccc2c2cc3c(cc21)c1ccc(/C=C/c2ccc(N(c4ccccc4)c4ccccc4)cc2)cc1n3CCCCCCCC
photoluminescence quantum yield (in Cc1ccccc1): 0.62

SMILES: C(=C\c1cc2ccccc2c2ccccc12)/c1cc2ccccc2c2ccccc12
photoluminescence quantum yield (in C1CCOC1): 0.6

SMILES: Nc1ccc2c(c1)C(=O)c1ccc(N)cc1C2=O
photoluminescence quantum yield (in CC#N): 0.016
photoluminescence quantum yield (in CC(C)O): 0.008
photoluminescence quantum yield (in CCO): 0.0007
photoluminescence quantum yield (in CCOC(C)=O): 0.028
photoluminescence quantum yield (in CO): 0.0002

SMILES: c1ccc2cc(-c3c4ccccc4c(-c4nccc5ccccc45)c4ccccc34)ccc2c1
photoluminescence quantum yield (in ClCCl): 0.57

SMILES: C(#Cc1ccc(-n2c3ccccc3c3ccccc32)cc1)c1ccccc1
photoluminescence quantum yield (in ClCCl): 0.72

SMILES: C(=C\c1ccc(N(c2ccccc2)c2ccccc2)cc1)/c1ccc(-c2ccc(/C=C/c3ccc(N(c4ccccc4)c4ccccc4)cc3)cc2)cc1
photoluminescence quantum yield (in ClCCl): 0.86

SMILES: COc1ccc(-c2csc(/C(C#N)=C/c3c(Cl)cccc3Cl)n2)cc1
photoluminescence quantum yield (in CC#N): 0.038

SMILES: CC(C)(C)c1ccc(-c2nc3ccccc3nc2-c2cc(-c3nc4ccccc4nc3-c3ccc(C(C)(C)C)cc3)cc(-n3c4ccccc4c4ccccc43)c2)cc1
photoluminescence quantum yield (in Cc1ccccc1): 0.35

SMILES: COc1ccc(/C=C2\OC(=O)c3ccccc32)cc1
photoluminescence quantum yield (in CC(C)=O): 0.01
photoluminescence quantum yield (in CC(C)CO): 0.07
photoluminescence quantum yield (in CC(C)O): 0.1
photoluminescence quantum yield (in CCCO): 0.13
photoluminescence quantum yield (in CCO): 0.14
photoluminescence quantum yield (in CCOC(C)=O): 0.008
photoluminescence quantum yield (in CCOCC): 0.001
photoluminescence quantum yield (in CO): 0.14

SMILES: CC1(C)c2ccccc2N(c2ccc3c(c2)Oc2ccccc2P3(=O)c2ccccc2)c2ccccc21 (stereo not drawn)
photoluminescence quantum yield (in Cc1ccccc1): 0.37
photoluminescence quantum yield (in O=P(c1ccccc1)(c1ccccc1)c1ccccc1Oc1ccccc1P(=O)(c1ccccc1)c1ccccc1): 0.62

SMILES: CC(C)(C)c1ccc(-c2c3ccccc3c3n2[B-](F)(F)[N+]2=Cc4c5ccccc5c(-c5ccc(C(C)(C)C)cc5)n4[B-](F)(F)[N+]2=C3)cc1
photoluminescence quantum yield (in CC#N): 0.26
photoluminescence quantum yield (in CCCCCC): 0.34
photoluminescence quantum yield (in CN(C)C=O): 0.28
photoluminescence quantum yield (in Cc1ccccc1): 0.34
photoluminescence quantum yield (in ClCCl): 0.34

SMILES: S=P1(c2ccccc2)C(c2ccccc2)=Cc2cc3ccccc3cc21 (stereo not drawn)
photoluminescence quantum yield (in ClCCl): 0.001

SMILES: Cn1c(-c2ccc(-c3nc(-c4ccccc4)c(-c4ccccc4)n3C)cc2)nc(-c2ccccc2)c1-c1ccccc1
photoluminescence quantum yield (in CC#N): 0.9 and 0.66

Further lines, results first:

photoluminescence quantum yield (in ClCCl): 0.34
SMILES: COc1ccc(C2=[N+]3C(=Nc4c(-c5ccc6ccccc6c5)cc(-c5ccc(OC)cc5)n4[B-]3(F)F)C(c3ccc4ccccc4c3)=C2)cc1

photoluminescence quantum yield (in ClC(Cl)Cl): 0.075
SMILES: CC(C)(C)c1ccc2c(c1)oc1nc3oc4ccc(-n5c6ccccc6c6ccccc65)cc4c3cc12

photoluminescence quantum yield (in C1CCOC1): 0.75
SMILES: CCCCCCCCCc1c2ccccc2cc2c1oc1c3oc4c5oc6cc7ccccc7cc6c5c5ccccc5c4c3c3ccccc3c21

photoluminescence quantum yield (in ClCCl): 0.92
SMILES: CCCCN1C(=O)c2ccc3c4ccc5c6c(cc(Br)c(c7ccc(c2c37)C1=O)c64)C(=O)N(CCCC)C5=O

photoluminescence quantum yield (in CC#N): 0.05
photoluminescence quantum yield (in ClCCl): 0.98
SMILES: COC(=O)c1cc(=O)n(Cc2ccccc2)c2cc(-c3ccc(N(C)C)cc3)sc12

photoluminescence quantum yield (in ClC(Cl)Cl): 0.12
SMILES: Cc1ccc(/C2=c3\cc/c(o3)=C(\c3ccc(C)cc3)c3ccc([nH]3)-c3ccc4n3[B-](F)(F)[N+]3=C(C=CC3=C4c3ccc[nH]3)c3ccc2[nH]3)cc1

photoluminescence quantum yield (in CCCCCCC): 0.00088
SMILES: c1ccc2c3c(ccc2c1)-c1c2ccccc2cc2cccc-3c12

photoluminescence quantum yield (in CO): 0.18
SMILES: COc1ccc(-c2nc(-c3ccccc3)c(-c3ccccc3)[nH]2)cc1

photoluminescence quantum yield (in ClCCl): 0.51
SMILES: CCCCCCOc1ccc2c(c1)-c1cc3c(cc1[Si]2(C)C)-c1ccccc1[Si]3(C)C

photoluminescence quantum yield (in ClCCl): 0.0562
SMILES: c1ccc(-n2nc(-c3ccc(N4c5ccccc5Sc5ccccc54)cc3)nc2-c2ccccn2)cc1

photoluminescence quantum yield (in O): 0.93
SMILES: c1ccc2[nH]ccc2c1

photoluminescence quantum yield (in ClC(Cl)Cl): 0.15
SMILES: CCCCCCN1C(=O)c2cccc3c(-c4ccc(-c5ccc6c7c(cccc57)C(=O)N(CCCCCC)C6=O)s4)ccc(c23)C1=O

photoluminescence quantum yield (in CO): 0.001
SMILES: COc1ccc(/C=C(\c2ccccc2)c2nc3ccccc3s2)cc1

photoluminescence quantum yield (in ClCCl): 0.48
SMILES: Cc1cccc(-c2c3ccccc3cc3ccccc23)n1

photoluminescence quantum yield (in CC#N): 0.24
photoluminescence quantum yield (in CCCCCC): 0.17
SMILES: CCN(CC)c1ccc(-n2c(C)ccc2C)cc1
